In patent US20240057595A1, “INSECT REPELLENT COMPOSITIONS” (Manus Bio Inc., priority 2020, published 2024):

Test system: Aedes aegypti UGAL mosquito strain (adult female)
Assay: Mortality assay on treated filter paper
Assay type: in vivo
Settings: 0.5% solution; within the first 20 minutes; FIG. 4
Protocol: A mortality assay was employed to evaluate mosquito mortality in response to exposure to eleven different treatments including water, a series of NKT dilutions, and 0.5% permethrin. The Aedes aegypti UGAL mosquito strain (adult female) was used in this example.
The experiments were conducted in a well-lit, temperature- and humidity-controlled room. The room was 22-24° C. with humidity at 40-45%. To conduct these experiments, each treatment had four replicates under the same conditions. A filter paper, 10 cm in diameter, was treated with 340 μl of an experimental or control solution using a standardized spray bottle (113.3 μl/spray) that was held approximately 5 cm away from the paper. The treated filter paper was placed into an open petri dish with a diameter of 10 cm. […] Female mosquitoes were then anesthetized on ice for five minutes. After 60 minutes, 10 ice-anesthetized adult female mosquitoes were transferred onto the treated paper using soft featherweight forceps. The petri dish lid was placed on top, and the mosquitoes were given two minutes to revive before the timer was started. Mosquitoes were then monitored every five minutes. Mosquitoes on their back were considered knocked down and marked as deceased in these experiments. […] Log-rank (Mantel-Cox) test was performed for comparison of survival curves.

CC1(C)C(C=C(Cl)Cl)C1C(=O)OCc1cccc(Oc2ccccc2)c1 (stereo not shown) [permethrin]
knockdown effect: strong immediate knockdown effect
